Test results published in patent US8097615B2, “Neurofibrillary labels” (Wista Laboratories Ltd., priority 2001, dated 2012).
“Also recorded” adds a separate entry of the source. Where two headings read alike, the source gives them in different places.

Legend:
tangle fragments = experiment: Competitive binding assay: displacement of primulin fluorescence from tangle fragments (ifI); parameters: species or system human; settings: for competition with / displacement of other ligands at tangles: fluorescence end point
Protocol: IfI material was homogenised in a 0.2 ml glass homogeniser in PBS. To the suspension, test compounds were added to final concentrations ranging from 0.1% to 0.00001%. […] The suspensions were transferred to a glass slide, and examined by fluorescence microscopy across a range of fluorescence filter blocks, covering excitation and emission wavelengths between 380 nm and 570 nm. The end point sought in these observations was displacement of typical primulin fluorescence from tangle fragments.

amyloid = experiment: Labelling / staining of amyloid deposits; type: binding
tau-tau binding = target: T1, tau-tau binding (Homo sapiens, UniProt P10636); experiment: Solid-phase tau-tau binding assay (dGA solid phase, dGAE liquid phase), tau Preparation 2; type: biochemical; settings: for tau-tau binding relative to that seen in the absence of DMMB: tau typically 1 μM
T1 construct: a truncated tau protein corresponding to the core fragment and terminating at Ala390-dGA; dGAE which terminates at Glu-391; made in house; host or cells: E. coli BL21 (DE3), pRK172; DE52 flow-through, P11 phosphocellulose, PEG concentration, no heat step (Preparation 2)
Protocol: Preparation 2 differs from Preparation 1 above in the following respects: (1) The concentration of cells at the sonication stage is increased by 5-fold. (2) A batchwise adsorption of non-tau proteins to DE52 is included. (3) The proteins are not subjected to heat treatment. (4) The final step involves concentration using polyethylene glycol.
Escherichia coli is grown in 2×TY medium (Oxoid) supplemented with ampicillin (50 micrograms per ml) to late-logarithmic phase. Cells from 5 liters of culture are harvested by centrifugation and the cell pellets frozen rapidly over liquid nitrogen. The pellets are taken up with 50 mM PIPES (pH 6.8) containing 1 mM EDTA, 1 mM dithiothreitol and 1 mM phenylmethylsulphonylfluoride (PMSF) and bacteria lysed by sonication (2×3 min) at 4 C. The mixture is centrifuged at 10,000 rpm for 20 min. The supernatant is rotated with 1 gram of Whatman DE52 for 3 hr at 4 C. The mixture is separated on a column and the flow-through material that fails to bind to DE52 is incubated for 3 hr at 4 C, with rotation, with 0.4 g of Whatman P11 (freshly regenerated according to manufacturer's recommendations). The column is washed with column buffer (50 mM PIPES, pH 6.8 containing 1 mM EGTA, 5 mM EDTA, 0.2 mM MgCl2, 5 mM β-mercaptoethanol and 1 mM PMSF). Tau protein is eluted stepwise with a 0.1 to 1 M gradient of KCl in column buffer. Fractions containing tau (determined by immunoassay) are pooled and dialysed against 80 mM PIPES (pH6.8) containing 1 mM EGTA, 1 mM MgCl2 and 5 mM β-mercatoethanol, using dialysis tubing with a molecular weight cut-off of 1,000. The dialysate is concentrated by applying polyethylene glycol 8000 to the outside of the sac for 2-3 hr. The final concentration of tau ranged from 3 to 10 mg per ml.
When the proteins dGA and dGAE were prepared as indicated above (“Preparation 2”), the properties of the tau-tau binding assay were altered relative to the properties obtained using the preparative method described in WO96/30766 (“Preparation 1”).
The assay is performed using 96 well PVC plates (Falcon Cat. No. 353912 are used), and the following steps:
1. 50 μl dGA (˜10 μg/ml) in carbonate buffer, incubate 1 h at 37° C.
(Carbonate buffer: 50 mM carbonate bicarbonate, pH 9.6 (Na2CO3 1.59 g/l, NaHCO3 2.93 g/l))
2. Wash plate in 0.05% Tween-20.
3. 200 μl PBS+2% Marvel, incubate 1 h at 37° C.
4. Rinse plate 2× in deionised water, then wash in 0.05% Tween-20.
5. 50 μl dGAE (˜10 μg/ml) plus drug in PBS+1% fish skin gelatin+0.05% Tween-20, incubate 1 h at 37° C.
6. Wash plate in 0.05% Tween-20.
7. 50 μl antibody 423 (1:10 dilution in PBS+2% Marvel), incubate 1 h at 37° C.
8. Rinse plate 2× in deionised water, then wash in 0.05% Tween-20.
9. 50 μl HRP-anti-mouse (1:1000 dilution in PBS+0.05% Tween-20), incubate 1 h at 37° C.
10. Wash plate in 0.05% Tween-20, then rinse 1× with deionised water.
11. 50 μl substrate solution, read immediately initial rate over 2 min in plate reader at OD650.
(Substrate solution: 50 mM sodium acetate, pH 5.0+TMB (1 ml/100 ml of a 10 mg/ml solution in DMSO)+H2O2 (10 μl/100 ml)).

isolated PHFs = experiment: Ligand electronmicroscopy of Pronase-digested PHFs (gold-conjugated anti-biotin antibody); type: binding
Protocol: (§1) In ifI suspensions such as this, tangles can be seen by blue fluorescence which is […] from that associated with binding of contaminants in the preparation. […] (a) Chemical labelling with the biotinylated benzothiazole analogue shown as 4b in FIG. 4. PHFs were deposited on a carbon-coated grid after Pronase digestion, and incubated briefly with compound 4b, and then incubated with an anti-biotin antibody preparation that had been conjugated with colloidal gold. […] (b) mAb 423 immunolabelling of isolated PHFs after Pronase digestion., followed by incubation with a gold-conjugated goat anti-mouse second antibody as described in Novak et al. 1993 (Novak M, Kabat J, Wischik C M (1993) “Molecular characterisation of the minimal protease-resistant tau unit of the Alzheimers' disease paired helical filament”, EMBO J. 12: 365-370). As shown in this paper, mAb 423 labels PHFs derived from intracellular tangles (which preserve N-terminal tau immunoreactivity in the fuzzy outer coat) poorly, but Pronase digested PHFs strongly.
PHFs derived from an ifI fraction were deposited on a carbon coated grid after pronase digestion, and incubated briefly with a preparation of biotinylated Primulin, and then incubated with an anti-biotin antibody that has been conjugated with colloidal gold by the method of Slot and Gueze (1981).

PHFs = experiment: Spectrofluorometry of primulin in solution and bound to PHFs (ifII); type: binding; settings: PHFs with bound primulin treated with the substance
Protocol: These measurements were carried out in a Perkin-Elmer spectrofluorimeter (model MPF-3). A concentration of ligand of 0.00001% was routinely used for all measurements. […] All measurements were therefore carried out at a standard excitation wavelength of 370 nm, and a constant slit width of 3 mm.
Further investigations into the relationship between aggregation-dependent tau ligands and tau aggregation inhibitors were carried out using primulin. Primulin in solution has a fluorescence peak at 520 nm. This shifts to 470 nm when primulin is bound within a pure preparation of PHFs (FIG. 6). […] Therefore, binding by such compounds is dependent on the polymerised state of tau found in the PHF, but is not present in free tau.
Compounds have been identified which disrupt the structure of the PHF and reverse the proteolytic stability of the PHF core (see WO 96/30766). Examples of such compounds are shown in accompanying FIG. 8. The present inventors have now identified that these compounds bind to tau at a specific binding site within the high affinity tau-tau binding domain.

neurofibrillary tangles = experiment: Fluorescence labelling of tangles (sections, ifI tangle suspensions); type: binding, human
Protocol: as §1
Serial 16 μm sections are cut from the hippocampus of a case dying with clinically and neuropathologically confirmed AD. […]
A Leitz fluorescence microscope fitted with a photo-multiplyer tube (Model MPV-2) was used to quantitate fluorescence emission. […]

T1 sequence (P10636 614-708 limits assumed): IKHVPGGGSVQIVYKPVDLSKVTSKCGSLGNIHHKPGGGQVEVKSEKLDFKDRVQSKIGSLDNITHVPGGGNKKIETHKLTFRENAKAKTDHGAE

2-(4-amino phenyl)-6-methyl-1-sulphonate benzothiazole [compound 2]
displaced from tangles by primulin (SB-ligand) (tangle fragments): displaced from NFTs; also recorded: displace this from tangles | displaced from amyloid by primulin (amyloid): not amyloid | labelling / staining of amyloid (amyloid): bind preferentially to amyloid

Cc1cc(=[N+](C)C)cc2sc3cc(N(C)C)cc(C)c3nc1-2.[Cl-] [DMMB, dimethyl methylene blue]
inhibitory potency in Preparation 2 compared with Preparation 1 (tau-tau binding): higher inhibitory potency in Preparation 2 than in Preparation 1 | tau-tau binding relative to that seen in the absence of DMMB (tau-tau binding; DMMB 5 μM): 23% | tau-tau binding relative to that seen in the absence of DMMB (tau-tau binding; DMMB 15 μM): 17%

O=C(O)CCCC[C@@H]1SC[C@@H]2NC(=O)N[C@@H]21 [biotin]
immunogold anti-biotin labelling of isolated PHFs after pre-incubation (isolated PHFs): no labelling

CC1=CC(=O)OC1=O [citraconic anhydride]
effect on PHF-bound primulin fluorescence peak (PHFs): disrupting the orderly structure of PHFs and releasing free tau and free unbound primulin; also recorded: abolish the 470 nm fluorescence peak

Cc1ccc2sc(-c3ccc(N=Nc4ccccc4O)cc3)nc2c1S(=O)(=O)[O-].[Na+] [compound 4a]
activity as ligand (tangle fragments): active ligands | competition with / displacement of other ligands at tangles (tangle fragments): compete out thiazin red and primulin fluorescence at equivalent concentrations

Cc1ccc2sc(-c3ccc(N=Nc4cc(CCC(=O)ON5C(=O)CCC5=O)ccc4O)cc3)nc2c1S(=O)(=O)[O-].[Na+] [compound 4b]
competition with / displacement of other ligands at tangles (tangle fragments): compete primulin and thiazin red | immunogold anti-biotin labelling of isolated PHFs after pre-incubation (isolated PHFs): binds to the proteolytically stable PHF structure; also recorded: label isolated PHFs

Cc1ccc2sc(-c3ccc(N=NNc4ccc(-c5nc6c(S(=O)(=O)[O-])c(C)ccc6s5)cc4)cc3)nc2c1S(=O)(=O)[O-].[Na+].[Na+] [thiazin yellow]
activity as ligand (tangle fragments): inactive as a ligand; also recorded: does not serve as an effective ligand | competition with / displacement of other ligands at tangles (tangle fragments): did not

Cc1ccc2c(c1)sc(-c1ccc(N(C)C)cc1)[n+]2C.[Cl-] [thioflavin-T]
labelling of tangles (neurofibrillary tangles): barely visible tangle; also recorded: much less effective | displaced from tangles by primulin (SB-ligand) (tangle fragments): displaced by yellow tangle fluorescence produced by primulin; also recorded: can be displaced from tangles by primulin | displaced from tangles by primulin (SB-ligand) (tangle fragments; listed as 1b): displaced from NFTs | displaced from tangles by primulin (SB-ligand) (tangle fragments; listed as compound 1b): displace compound 1b at tangles | labelling / staining of amyloid (amyloid): labelled amyloid preferentially; also recorded: strongly stain amyloid deposits | labelling / staining of amyloid (amyloid; listed as 1b): bind preferentially to amyloid

alcian blue
effect on PHF-bound primulin fluorescence peak (PHFs): no disturbance of the characteristic bound primulin fluorescence peak; also recorded: retention of the fluorescence peak of primulin at 470 nm
